Results as given in the supplement of paper PMC8253809.

Tests used:
DIPGX29 [1] = H3.3 K27M diffuse intrinsic pontine glioma line; assay: EC50 (inflection of fitted growth-inhibition curve) (log10 M)
In short: (§1)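 Compounds were delivered by pin tool as a 10-point threefold dilution series with a mean top concentration of 35 μM, in triplicate, to patient-derived pHGG/DIPG cell lines and astrocyte controls growing on 1% Geltrex-coated 384-well plates. Incubation lasted 7 days, or 3 days for iAstro, at 37 °C with 5% CO2. EC50 and maximal response (yFin) come from the three- or four-parameter log-logistic fit with the lowest AICc, applied to pooled, log2-transformed CellTiter-Glo luminescence normalised per plate to % activity between solvent (negative) and positive control wells.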

DIPGX37 [2] = H3.3 K27M diffuse intrinsic pontine glioma line; assay: as above
In short: as §1

DIPGX7 [3] = H3.3 K27M diffuse intrinsic pontine glioma line; assay: as above
In short: as §1

DIPGX9 [4] = diffuse intrinsic pontine glioma line; assay: as above
In short: as §1

HABS [5] = astrocyte control; assay: as above
In short: as §1

HGGX2 [6] = paediatric high-grade glioma line; assay: as above
In short: as §1

HGGX39 [7] = paediatric high-grade glioma line; assay: as above
In short: as §1

HGGX42 = H3.3 G34R paediatric high-grade glioma line; assay: as above
In short: as §1

HGGX6 [8] = H3.3 G34R paediatric high-grade glioma line; assay: as above
In short: as §1

SUDIPGIV [9] = diffuse intrinsic pontine glioma line; assay: as above
In short: as §1

SUDIPGVI [10] = diffuse intrinsic pontine glioma line; assay: as above
In short: as §1

SUDIPGXIII [11] = diffuse intrinsic pontine glioma line; assay: as above
In short: as §1

SUDIPGXIX [12] = diffuse intrinsic pontine glioma line; assay: as above
In short: as §1

SUDIPGXVII [13] = diffuse intrinsic pontine glioma line; assay: as above
In short: as §1

SUDIPGXXI [14] = diffuse intrinsic pontine glioma line; assay: as above
In short: as §1

iAstro [15] = astrocyte control; assay: as above
In short: as §1

DIPGX29 [16] = assay: area under dose-response curve of % growth inhibition (log2 RLU vs DMSO / staurosporine), 1e-11 to 1e-4 M (% x log10 M); higher = more growth inhibition
In short: (§2)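 Area under the curve was derived with the trapezoid rule from a fitted log-logistic curve, switching to a smoothing spline if the sigmoid fit failed. It rested on per-plate % activity between solvent and positive controls, calculated from log2-transformed CellTiter-Glo luminescence after 7 days of exposure (3 days for iAstro) at 37 °C, 5% CO2. Patient-derived pHGG/DIPG lines and astrocytes on 1% Geltrex-coated 384-well plates received a 10-point threefold dilution series, mean top concentration 35 μM, in triplicate.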

DIPGX37 [17] = assay: as above
In short: as §2

DIPGX7 [18] = assay: as above
In short: as §2

DIPGX9 [19] = assay: as above
In short: as §2

HABS [20] = assay: as above
In short: as §2

HGGX2 [21] = assay: as above
In short: as §2

HGGX39 [22] = assay: as above
In short: as §2

HGGX6 [23] = assay: as above
In short: as §2

SUDIPGIV [24] = assay: as above
In short: as §2

SUDIPGVI [25] = assay: as above
In short: as §2

SUDIPGXIII [26] = assay: as above
In short: as §2

SUDIPGXIX [27] = assay: as above
In short: as §2

SUDIPGXVII [28] = assay: as above
In short: as §2

SUDIPGXXI [29] = assay: as above
In short: as §2

iAstro [30] = assay: as above
In short: as §2

SMILES | EC50 (log10 M) (DIPGX29 [1]) | EC50 (log10 M) (DIPGX37 [2]) | EC50 (log10 M) (DIPGX7 [3]) | EC50 (log10 M) (DIPGX9 [4]) | EC50 (log10 M) (HABS [5]) | EC50 (log10 M) (HGGX2 [6]) | EC50 (log10 M) (HGGX39 [7]) | EC50 (log10 M) (HGGX42) | EC50 (log10 M) (HGGX6 [8]) | EC50 (log10 M) (SUDIPGIV [9]) | EC50 (log10 M) (SUDIPGVI [10]) | EC50 (log10 M) (SUDIPGXIII [11]) | EC50 (log10 M) (SUDIPGXIX [12]) | EC50 (log10 M) (SUDIPGXVII [13]) | EC50 (log10 M) (SUDIPGXXI [14]) | EC50 (log10 M) (iAstro [15]) | area under dose-response curve (DIPGX29 [16]) | area under dose-response curve (DIPGX37 [17]) | area under dose-response curve (DIPGX7 [18]) | area under dose-response curve (DIPGX9 [19]) | area under dose-response curve (HABS [20]) | area under dose-response curve (HGGX2 [21]) | area under dose-response curve (HGGX39 [22]) | area under dose-response curve (HGGX6 [23]) | area under dose-response curve (SUDIPGIV [24]) | area under dose-response curve (SUDIPGVI [25]) | area under dose-response curve (SUDIPGXIII [26]) | area under dose-response curve (SUDIPGXIX [27]) | area under dose-response curve (SUDIPGXVII [28]) | area under dose-response curve (SUDIPGXXI [29]) | area under dose-response curve (iAstro [30])
CC(=O)c1cc([N+](=O)[O-])c(Sc2ccc(F)cc2F)s1 | -4.83 | -4.79 | -4.76 | -4.77 | -4.7 | -4.59 | -4.79 | -4.68 | -4.65 | -4.71 | -4.76 | -4.72 | -4.78 | -4.75 | -4.78 | -4.85 | 104 | 88.6 | 94.3 | 92.8 | 26.4 | 78.5 | 19.5 | 67.9 | 91.3 | 71.4 | 74.4 | 91.8 | 55.7 | 87.4 | 75.5
O=C(c1ccccc1)c1ccc2nc(NC(=O)c3csc(C4CCN(c5ncnc6ccsc56)CC4)n3)[nH]c2c1 | -5.26 | -5.87 | -5.45 | -5.03 | -5.18 | -5.06 | -5.87 | -5.14 | -5.19 | -5.86 | -5.46 | -5.72 | -4.95 | -5.91 | -5.2 | -5.2 | 97.4 | 89.1 | 135 | 62.6 | 42.1 | 83.7 | 55.4 | 55.8 | 51.4 | 67 | 114 | 118 | 68.3 | 147 | 88.4
CCN1CCN(Cc2ccc(Nc3ncc(F)c(-c4cc(F)c5nc(C)n(C(C)C)c5c4)n3)nc2)CC1 [ABEMACICLIB] | -6.78 | -6.56 | -6.11 | -6.86 | – | -6.84 | -6.29 | -6.74 | -5.83 | -6.04 | -6.09 | -6.07 | -6.26 | -6.01 | -6.6 | -6.74 | 107 | 255 | 233 | 124 | 93.8 | 120 | 193 | 127 | 156 | 102 | 109 | 248 | 123 | 252 | 161
COCC1(CO)C(=O)C2CCN1CC2 (stereo not drawn) [APR-246] | -4.85 | -4.79 | -4.79 | -4.82 | – | -4.71 | – | -4.72 | -4.81 | -4.81 | -4.72 | -4.77 | -4.78 | -4.81 | -5.41 | -4.91 | 90.6 | 87.7 | 79.7 | 94.2 | 8.03 | 69.5 | 13 | 73.1 | 85.3 | 72.7 | 74.7 | 74.8 | 87.2 | 177 | 82.7
CN1[C@@H]2CC[C@H]1C[C@@H](OC(=O)c1cc(Cl)cc(Cl)c1)C2 [BEMESETRON] | -5.09 | -5.32 | -5.23 | -4.9 | -4.73 | -4.99 | -5.05 | -5.38 | -4.86 | -4.99 | – | – | -4.85 | -4.9 | -5.63 | -5.08 | 101 | 137 | 112 | 58.7 | 14.8 | 64 | 85.8 | 73.6 | 93.7 | 15.4 | 8.98 | 65.3 | 39.9 | 166 | 35.7
CC(C)C[C@H](NC(=O)[C@H](CCc1ccccc1)NC(=O)CN1CCOCC1)C(=O)N[C@@H](Cc1ccccc1)C(=O)N[C@@H](CC(C)C)C(=O)[C@@]1(C)CO1 [CARFILZOMIB] | -5.73 | -6.68 | -7.29 | -7 | -6.6 | -7.54 | -6.2 | -6.77 | -6.37 | -7.24 | -6.71 | -5.36 | -6.53 | -6.36 | – | -8.68 | 171 | 266 | 303 | 343 | 280 | 344 | 239 | 217 | 320 | 259 | 148 | 294 | 249 | 649 | 379
Cc1noc2c1-c1ccccc1C(c1ccc(Cl)cc1)=N[C@H]2CC(N)=O [CPI-0610] | -5.05 | – | -4.88 | -5.71 | -5.3 | -5.42 | -4.96 | -5.3 | -5.43 | -5.51 | -5.11 | – | -5.17 | -5.39 | -6.13 | -5.98 | 99.5 | 81.3 | 105 | 194 | 97.5 | 98.6 | 110 | 59.4 | 114 | 121 | 13.5 | 156 | 88.9 | 251 | 67
CCCc1cc(C)[nH]c(=O)c1CNC(=O)c1cc(-c2ccnc(N3CCN(C)CC3)c2)cc2c1cnn2C(C)C [GSK343] | -4.6 | -4.59 | -4.63 | -4.74 | -4.81 | -4.78 | -4.59 | -4.7 | -4.6 | -4.69 | -4.59 | -4.57 | -4.69 | – | -4.81 | -4.88 | 78.7 | 99.1 | 71.6 | 90.7 | 56.1 | 88.2 | 12.1 | 66.3 | 51.3 | 66.2 | 49.9 | 122 | 12.3 | 102 | 58.3
C=CCn1c(=O)c2cnc(Nc3ccc(N4CCN(C)CC4)cc3)nc2n1-c1cccc(C(C)(C)O)n1 [MK-1775] | -6.91 | -6.2 | -5.75 | -5.33 | -5.41 | -6.67 | -5.05 | -5.45 | -5.72 | -5.92 | – | – | -6.03 | -5.54 | -6.07 | -6.04 | 114 | 48.9 | 58.4 | 60 | 35.1 | 83 | 46.4 | 37.6 | 96 | 27.9 | 15 | 73.8 | 39.4 | 190 | 71.1
COc1ncc(-c2ccc3nccc(-c4ccnnc4)c3c2)cc1NS(=O)(=O)c1ccc(F)cc1F [OMIPALISIB] | -5.88 | -6.38 | – | -7.52 | -6.58 | -6 | -5.79 | -6.22 | -4.77 | -6.11 | -6.23 | -5.65 | -7 | -6.19 | -7.11 | -5.44 | 219 | 290 | 248 | 366 | 262 | 263 | 224 | 193 | 245 | 257 | 225 | 326 | 251 | 366 | 64
CCOc1cc(C(C)(C)C)ccc1C1=N[C@@](C)(c2ccc(Cl)cc2)[C@@](C)(c2ccc(Cl)cc2)N1C(=O)N1CCN(CCCS(C)(=O)=O)CC1 [RG7112] | -4.8 | – | -4.82 | -5.7 | -5.4 | -4.78 | -4.85 | -4.64 | -4.71 | -4.86 | -4.87 | -4.75 | -5.56 | -4.8 | -6.49 | -4.85 | 85.4 | 169 | 73.2 | 204 | 176 | 77.8 | 82.1 | 61.6 | 47.8 | 30.5 | 77.5 | 204 | 91.7 | 288 | 69.8
C=CCNC1=C2C[C@@H](C)C[C@H](OC)[C@H](O)[C@@H](C)/C=C(\C)[C@H](OC(N)=O)[C@@H](OC)/C=C\C=C(/C)C(=O)NC(=CC1=O)C2=O [TANESPIMYCIN] | -5.85 | -6.99 | – | -6.85 | -5.41 | -4.97 | -6.48 | -6.01 | -5.84 | -5.88 | -5.19 | -4.95 | -6.32 | -4.99 | -5.76 | -5.41 | 132 | 312 | 89.8 | 309 | 161 | 83 | 242 | 59.6 | 138 | 42.2 | 80.1 | 214 | 89.8 | 223 | 50.9
